The source of these data is patent publication US20170000133A1, “BENZOXABOROLE FUNGICIDES” (SYNGENTA PARTICIPATIONS AG, priority 2013, published 2017).

SMILES strings stand for the structures. Some results are limits rather than exact numbers.

The subject of data set [1] is Plasmopara viticola. Kind of data set: whole plant or invertebrate. The data set is classed as in vivo. To be noted: foliar, read-out: disease control.
For data set [2], the system named is Puccinia recondita f. sp. tritici. Put plainly: Puccinia recondita f. sp. tritici / wheat / leaf disc preventative (brown rust). It is filed as in vivo. Particulars: foliar, wheat leaf segments cv Kanzler, inoculated 1 day after application, assessed 7-9 days after application, read-out: disease control. From the text:
3. Puccinia recondita f. sp. tritici/Wheat/Leaf Disc Preventative (Brown Rust): Wheat leaf segments cultivated variety (cv) Kanzler were placed on agar in 24-well plates and sprayed with formulated test compound diluted in water at an application rate of 200 ppm. The leaf disks were inoculated with a spore suspension of the fungus 1 day after application.

The subject of data set [3] is Pythium ultimum. Put plainly: Pythium ultimum / liquid culture (seedling damping off). It is filed as cell-based. Particulars: Globisporangium ultimum; 200 ppm; potato dextrose broth, 24° C., 2-3 days after application; read-out: disease control (inhibition of growth determined photometrically).
Data set [4] relates to Glomerella lagenarium (Colletotrichum lagenarium). Put plainly: Glomerella lagenarium (Colletotrichum lagenarium) / liquid culture (anthracnose). The data set is classed as cell-based. Particulars: Colletotrichum orbiculare, PDB potato dextrose broth, 24° C., 3-4 days after application, read-out: disease control (inhibition of growth measured photometrically). An outline of the steps:
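Compound was applied at 200 ppm from DMSO solution, then potato dextrose broth carrying cryostored fungal spores was added. Growth inhibition was measured by photometry after 3-4 days of incubation at 24° C.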

Data set [5] deals with Mycosphaerella arachidis (Cercospora arachidicola). Put plainly: Mycosphaerella arachidis (Cercospora arachidicola) / liquid culture (early leaf spot). It is filed as cell-based. To be noted: PDB potato dextrose broth, 24° C., 4-5 days after application, read-out: disease control (inhibition of growth determined photometrically). An outline of the steps: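 Test compound, applied at 200 ppm from DMSO solution, was combined with spore-containing potato dextrose broth. Photometric growth inhibition was scored after 4-5 days at 24° C.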

The subject of data set [6] is Mycosphaerella graminicola (Septoria tritici). Kind of data set: Mycosphaerella graminicola (Septoria tritici) / liquid culture (Septoria blotch). It is filed as cell-based. To be noted: Zymoseptoria tritici, PDB potato dextrose broth, 24° C., 4-5 days after application, read-out: disease control (inhibition of growth determined photometrically). An outline of the steps:
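Growth inhibition was read photometrically 4-5 days after application, following incubation at 24° C of fungal conidia in potato dextrose broth over test compound (200 ppm, from DMSO solution) in microtiter plates.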

Data set [7] has as its system Gaeumannomyces graminis. Kind of data set: Gaeumannomyces graminis / liquid culture (take-all of cereals). The data set is classed as cell-based. Particulars: PDB potato dextrose broth, 24° C., 4-5 days after application, read-out: disease control (inhibition of growth determined photometrically). An outline of the steps:
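Growth inhibition measured photometrically 4–5 days post-application, following incubation at 24 °C. Test compound, applied from DMSO at 200 ppm, mixed with fungal mycelial fragments in potato dextrose broth.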

Data set [8] deals with Monographella nivalis (Microdochium nivale). Put plainly: Monographella nivalis (Microdochium nivale) / liquid culture (foot rot cereals). It is filed as cell-based. Particulars: PDB potato dextrose broth, 24° C., 4-5 days after application, read-out: disease control (inhibition of growth determined photometrically).
Data set [9] has as its system Fusarium culmorum. Put plainly: microbe, parasite or virus in culture. Particulars: read-out: disease control (inhibition of growth determined visually). The data set is classed as cell-based.
For data set [10], the system named is Thanatephorus cucumeris (Rhizoctonia solani). Kind of data set: Thanatephorus cucumeris (Rhizoctonia solani) / liquid culture (foot rot, damping-off). The data set is classed as cell-based. To be noted: PDB potato dextrose broth, 24° C., 3-4 days after application, read-out: disease control (inhibition of growth determined photometrically). An outline of the steps:
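Photometric growth-inhibition readout taken 3-4 days after application, with cultures incubated at 24 °C. Test compound was applied at 200 ppm from DMSO solution to R. solani mycelial fragments in PDB.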

Data set [11] deals with Phytophthora infestans. Put plainly: whole plant or invertebrate. The data set is classed as in vivo. Particulars: in Solanum lycopersicum, foliar, read-out: disease control.
Data set [12] relates to Botryotinia fuckeliana (Botrytis cinerea). Kind of data set: Botryotinia fuckeliana (Botrytis cinerea) / liquid culture (gray mould). To be noted: Vogels broth, 24° C., 3-4 days after application, read-out: disease control (inhibition of growth determined photometrically). It is filed as cell-based. How it is done: 10. Botryotinia fuckeliana (Botrytis cinerea)/Liquid Culture (Gray Mould): Conidia of the fungus from cryogenic storage were directly mixed into nutrient broth (Vogels broth). After placing a DMSO solution of test compound into a 96-well microtiter plate at an application rate of 200 ppm, the nutrient broth containing the fungal spores was added. The test plates were incubated at 24° C. and the inhibition of growth was determined photometrically 3-4 days after application.

For orientation: inhibition means the share of the control response that was lost under treatment. Usually melting point stands for the temperature, or range, at which the solid turns liquid. `O=C(OCc1ccsc1)c1ccc2c(c1)B(O)OC2` [Compound 50] registered a melting point of 130 to 132 °C. In addition, the pest or weed control at 200 ppm in data set [1] was at least 80%. In data set [2], the pest or weed control at 200 ppm is at least 80%. Further, the inhibition at 200 ppm in data set [3] is at least 80%. Moreover, the inhibition at 200 ppm in data set [4] is at least 80%. In addition, the inhibition at 200 ppm in data set [5] was at least 80%. In addition, the inhibition at 200 ppm in [6] was at least 80%. Besides, in data set [7], the inhibition at 200 ppm was at least 80%. Moreover, in data set [8], the inhibition at 200 ppm was at least 80%. Further, the inhibition at 200 ppm in data set [9] was at least 80%. In addition, in [10], the inhibition at 200 ppm is at least 80%.
`O=C(NCc1cccc(Cl)c1)c1cc2c(cc1Cl)COB2O` [Compound 85] yielded a melting point of 263 to 265 °C. For the same compound, in [11], the pest or weed control at 200 ppm is at least 80%. Further, the pest or weed control at 200 ppm in data set [1] is at least 80%. In addition, in data set [3], the inhibition at 200 ppm was at least 80%. The inhibition at 200 ppm in data set [7] was at least 80%.
`O=C(NCc1ccccc1F)c1cc2c(cc1F)COB2O` [Compound 107]: the melting point lay in the range of 175 to 177 °C. Moreover, in data set [11], the pest or weed control at 200 ppm is at least 80%. Also, the pest or weed control at 200 ppm in data set [1] is at least 80%. Further, the inhibition at 200 ppm in data set [3] is at least 80%. The inhibition at 200 ppm in [4] was at least 80%.
`Cc1cccc(Cl)c1NC(=O)c1cc2c(cc1Cl)COB2O` [Compound 114]: the pest or weed control at 200 ppm in data set [11] and in data set [1] was at least 80% each time. Also, the inhibition at 200 ppm in data set [4], in data set [6], in [8] and in data set [9] was at least 80% each time.
Take `Cc1cccc(Cl)c1NC(=O)c1cc2c(cc1F)COB2O` [Compound 150]: the melting point was in the range of 212 to 214 °C. Besides, the pest or weed control at 200 ppm in [11] is at least 80%. The inhibition at 200 ppm in data set [3] is at least 80%. Besides, the inhibition at 200 ppm in data set [4] is at least 80%. The inhibition at 200 ppm in data set [8] is at least 80%. Also, the inhibition at 200 ppm in [9] was at least 80%.
Turning to `COC(=O)c1sccc1NC(=O)c1cc2c(cc1Cl)COB2O` [Compound 169], the melting point is 267 to 269 °C. Also, the pest or weed control at 200 ppm in data set [1] was at least 80%. In addition, the pest or weed control at 200 ppm in data set [2] is at least 80%. Also, the inhibition at 200 ppm in [4] is at least 80%. In addition, in [6], the inhibition at 200 ppm is at least 80%. Moreover, in data set [8], the inhibition at 200 ppm is at least 80%.
As for `COC(=O)c1sccc1NC(=O)c1cc2c(cc1F)COB2O` [Compound 186], the melting point fell in the range of 302 to 304 °C. The pest or weed control at 200 ppm in data set [11] is at least 80%. In addition, the pest or weed control at 200 ppm in data set [1] is at least 80%. In addition, the inhibition at 200 ppm in data set [3] is at least 80%. Further, in data set [8], the inhibition at 200 ppm is at least 80%.
For `Cc1ccc(-c2csc(NC(=O)c3cc4c(cc3F)COB4O)n2)cc1` [Compound 188], the pest or weed control at 200 ppm in data set [1] and in data set [2] was at least 80% throughout. The inhibition at 200 ppm in data set [8] was at least 80%.
As to `C[Si](C)(C)CCCOC(=O)c1cc2c(cc1Cl)COB2O` [Compound 194], the inhibition at 200 ppm in data set [12], in data set [4], in [5], in [6], in [7] and in data set [8] was at least 80% in each case.
`C#CC(CC)OC(=O)c1cc2c(cc1Cl)COB2O` (stereo not shown) [Compound 201]: the pest or weed control at 200 ppm in [1] was at least 80%. For the same compound, the inhibition at 200 ppm in data set [3], in [12], in [4], in [6], in data set [7] and in data set [8] was at least 80% throughout.
`O=C(OCc1cccc2ccccc12)c1cc2c(cc1Cl)COB2O` [Compound 207]: the pest or weed control at 200 ppm in data set [11] and in data set [2] was at least 80% each time. In addition, the inhibition at 200 ppm in [3], in data set [7] and in [8] was at least 80% in each case.
For `C#CC(OC(=O)c1cc2c(cc1Cl)COB2O)c1ccccc1` (stereo not shown) [Compound 211], the pest or weed control at 200 ppm in data set [11] and in data set [1] was at least 80% each time. Further, the inhibition at 200 ppm in data set [3], in data set [4], in data set [6], in [8] and in data set [10] was at least 80% in each case.
In the case of `C[Si](C)(C)/C=C/COC(=O)c1cc2c(cc1Cl)COB2O` [Compound 216], the inhibition at 200 ppm in [12], in data set [5], in data set [6], in [7] and in [8] was at least 80% in each case.
As for `O=C(OCCc1ccc(Cl)cc1Cl)c1ccc2c(c1)B(O)OC2` [Compound 312], in data set [2], the pest or weed control at 200 ppm was at least 80%. The inhibition at 200 ppm in data set [7] and in data set [8] was at least 80% throughout.
Regarding `CCCCCCCCCCOC(=O)c1ccc2c(c1)B(O)OC2` [Compound 331], the pest or weed control at 200 ppm in data set [2] was at least 80%. Besides, the inhibition at 200 ppm in [3], in [5], in [6] and in [10] was at least 80% throughout.
On to `COC(=O)C(OC(=O)c1ccc2c(c1)B(O)OC2)c1ccccc1` (stereo not shown) [Compound 349], for which the pest or weed control at 200 ppm in data set [1] and in data set [2] was at least 80% throughout. The inhibition at 200 ppm in [3], in data set [4], in [7] and in data set [8] was at least 80% each time.
Consider `C[Si](C)(C)COC(=O)c1ccc2c(c1)B(O)OC2` [Compound 367], for which the pest or weed control at 200 ppm in data set [1] and in data set [2] was at least 80% each time. The inhibition at 200 ppm in [3], in data set [4], in data set [6], in data set [7], in data set [8] and in [10] was at least 80% in each case.
On to `O=C(OCCc1ccc(Cl)cc1Cl)c1cc2c(cc1F)COB2O` [Compound 370], for which the pest or weed control at 200 ppm in data set [2] is at least 80%. Besides, the inhibition at 200 ppm in data set [3], in data set [6], in data set [7], in [8] and in data set [10] was at least 80% throughout.
For the compound `O=C(OCC1CCSCC1)c1cc2c(cc1F)COB2O` [Compound 380], the pest or weed control at 200 ppm in [1] and in data set [2] was at least 80% throughout. Also, the inhibition at 200 ppm in [3], in data set [4], in data set [5], in data set [8] and in data set [10] was at least 80% in each case.
For the compound `CCCCCCCCCCOC(=O)c1cc2c(cc1F)COB2O` [Compound 391], the pest or weed control at 200 ppm in data set [2] was at least 80%. Besides, the inhibition at 200 ppm in data set [3], in [5], in data set [7] and in [10] was at least 80% in each case.
Take `O=C(OCc1ccsc1)c1cc2c(cc1F)COB2O` [Compound 441]: the melting point lay in the range of 128 to 130 °C. For the same compound, the pest or weed control at 200 ppm in data set [1] is at least 80%. Besides, the pest or weed control at 200 ppm in data set [2] was at least 80%. Further, the inhibition at 200 ppm in [3] was at least 80%. Moreover, the inhibition at 200 ppm in data set [4] is at least 80%. For the same compound, in [5], the inhibition at 200 ppm was at least 80%. For the same compound, the inhibition at 200 ppm in data set [6] is at least 80%. The inhibition at 200 ppm in [8] is at least 80%. Also, the inhibition at 200 ppm in data set [9] was at least 80%. The inhibition at 200 ppm in [10] was at least 80%.
